This note sets out measurements from patent US20170320870A1 (Medical Research Council Technology, priority 2009, published 2017).

Where only a bound is given, the exact number is not on record here.

This test has as its target T1, LRRK2 wild type (recombinant human, catalytic domain amino acids 970-2527, GST-tagged) (Homo sapiens, UniProt Q5S007).
T1 construct: The wild type used was recombinant human, catalytic domain (amino acids 970-2527) GST-tagged, expressed in insect cells; GST; purchased Invitrogen Corporation PV4873; host or cells: insect cells
Description: LRRK2 wild type protein kinase assay ([γ-33P] ATP, peptide substrate […]), IC50. It is filed as biochemical. To be noted: LRRK2 (variant not given); read-out: Potency score, LRRK2 IC50. An outline of the steps: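 IC50 derived from duplicate 10-point titrations, with 33P incorporation into a 100 μM peptide counted after P81 filter capture. Roughly 5 nM unactivated kinase reacted with Mg/[γ-33P]ATP for 180 min at room temperature (~21 °C), pH 7.5 Tris buffer containing 10 mM MgCl2, EGTA and DTT; acid-quenched.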

T1 sequence (Q5S007 970-2527): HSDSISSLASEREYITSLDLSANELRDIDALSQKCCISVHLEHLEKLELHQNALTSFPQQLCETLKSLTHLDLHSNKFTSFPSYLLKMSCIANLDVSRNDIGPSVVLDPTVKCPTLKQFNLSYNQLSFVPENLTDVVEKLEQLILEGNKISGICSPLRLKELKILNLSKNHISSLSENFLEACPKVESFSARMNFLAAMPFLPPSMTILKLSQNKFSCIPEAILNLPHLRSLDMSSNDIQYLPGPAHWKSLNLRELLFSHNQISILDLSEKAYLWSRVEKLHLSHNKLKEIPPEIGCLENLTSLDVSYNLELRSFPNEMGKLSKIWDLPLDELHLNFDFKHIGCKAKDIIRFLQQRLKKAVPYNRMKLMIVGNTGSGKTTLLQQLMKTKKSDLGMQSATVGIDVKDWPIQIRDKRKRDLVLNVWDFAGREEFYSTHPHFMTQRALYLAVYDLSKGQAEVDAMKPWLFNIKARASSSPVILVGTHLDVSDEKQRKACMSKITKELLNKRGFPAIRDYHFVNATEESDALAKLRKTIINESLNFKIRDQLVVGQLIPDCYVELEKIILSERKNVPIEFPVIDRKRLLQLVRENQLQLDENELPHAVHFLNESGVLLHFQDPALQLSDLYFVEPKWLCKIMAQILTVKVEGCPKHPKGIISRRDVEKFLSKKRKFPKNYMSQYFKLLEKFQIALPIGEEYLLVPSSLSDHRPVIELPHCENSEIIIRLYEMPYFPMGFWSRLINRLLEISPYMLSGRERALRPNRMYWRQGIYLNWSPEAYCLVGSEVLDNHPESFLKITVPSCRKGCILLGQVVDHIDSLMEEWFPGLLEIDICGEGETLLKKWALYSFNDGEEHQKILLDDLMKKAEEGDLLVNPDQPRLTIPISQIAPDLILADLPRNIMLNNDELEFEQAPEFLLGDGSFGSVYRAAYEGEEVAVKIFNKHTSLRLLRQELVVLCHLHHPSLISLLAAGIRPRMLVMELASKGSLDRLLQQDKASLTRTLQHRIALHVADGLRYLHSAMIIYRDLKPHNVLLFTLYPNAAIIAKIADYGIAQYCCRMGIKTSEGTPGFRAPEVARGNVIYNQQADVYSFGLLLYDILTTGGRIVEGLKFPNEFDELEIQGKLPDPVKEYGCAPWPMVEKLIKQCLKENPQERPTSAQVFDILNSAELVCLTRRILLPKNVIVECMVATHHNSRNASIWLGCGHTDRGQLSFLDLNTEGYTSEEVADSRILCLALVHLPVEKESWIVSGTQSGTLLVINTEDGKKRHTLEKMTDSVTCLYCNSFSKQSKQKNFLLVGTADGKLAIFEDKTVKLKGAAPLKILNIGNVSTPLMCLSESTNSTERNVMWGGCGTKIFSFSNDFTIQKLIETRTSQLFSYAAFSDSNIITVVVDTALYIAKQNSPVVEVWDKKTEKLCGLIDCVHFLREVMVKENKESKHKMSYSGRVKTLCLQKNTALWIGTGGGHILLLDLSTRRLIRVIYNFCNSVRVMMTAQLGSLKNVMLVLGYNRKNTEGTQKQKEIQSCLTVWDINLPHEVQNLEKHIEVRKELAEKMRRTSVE

On to `Cc1n[nH]c2ccnc(Nc3ccc(N4CCN(C)CC4)cc3)c12` [Example 86, [4-(4-Methyl-piperazin-1-yl)-phenyl]-(3-methyl-1H-pyrazolo[4,3-c]pyridin-4-yl)-amine], for which the IC50 lay in the range of 1 to 10 µM.

In the case of `Cc1n[nH]c2ccnc(Nc3ccc(N4CCCC4=O)cc3)c12` [Example 89, 1-[4-(3-Methyl-1H-pyrazolo[4,3-c]pyridin-4-ylamino)-phenyl]-pyrrolidin-2-one], the IC50 lay in the range of 0.1 to 1 µM.

As for `Cc1n[nH]c2ccnc(Nc3cncc(-c4ccc(C#N)cc4)c3)c12` [Example 60, 4-[5-(3-Methyl-1H-pyrazolo[4,3-c]pyridin-4-ylamino)-pyridin-3-yl]-benzonitrile], the concentration for half-maximal inhibition (IC50) lay in the range of 0.1 to 1 µM.

As for `O=C(CCc1n[nH]c2ccnc(NC3CCCCC3)c12)N1CCCC(Oc2ccccc2)C1` (centres unmarked) [Example 238, 3-(4-Cyclohexylamino-1H-pyrazolo[4,3-c]pyridin-3-yl)-1-(3-phenoxy-piperidin-1-yl)-propan-1-one], the IC50 is 0.1 to 1 µM.

As for `Cc1n[nH]c2ccnc(Nc3ccc(C(=O)N(C)C)cc3)c12` [Example 74, N,N-Dimethyl-4-(3-methyl-1H-pyrazolo[4,3-c]pyridin-4-ylamino)-benzamide], the IC50 fell in the range of 0.1 to 1 µM.

With `Cc1n[nH]c2ccnc(N[C@H](C)C3CC3)c12` [Example 43, ((R)-1-Cyclopropyl-ethyl)-(3-methyl-1H-pyrazolo[4,3-c]pyridin-4-yl)-amine], the concentration for half-maximal inhibition (IC50) fell in the range of 1 to 10 µM.

For `CCOc1ccccc1CNc1nccc2[nH]nc(C)c12` [Example 340, (2-Ethoxy-benzyl)-(3-methyl-1H-pyrazolo[4,3-c]pyridin-4-yl)-amine], the half-inhibitory concentration (IC50) lay within 1 to 10 µM.

Turning to `Cc1n[nH]c2ccnc(-c3cnn(C)c3)c12` [Example 47, 3-Methyl-4-(1-methyl-1H-pyrazol-4-yl)-1H-pyrazolo[4,3-c]pyridine], the IC50 fell in the range of 1 to 10 µM.

For the molecule `Cc1nc2cc(Nc3nccc4[nH]nc(C)c34)ccc2s1` [Example 328, (2-Methyl-benzothiazol-5-yl)-(3-methyl-1H-pyrazolo[4,3-c]pyridin-4-yl)-amine], the 50% inhibitory concentration (IC50) fell in the range of 1 to 10 µM.

Regarding `O=C(CCc1n[nH]c2ccnc(O)c12)N1CCC[C@H](c2ccccc2)C1` [Example 257, 3-(4-Hydroxy-1H-pyrazolo[4,3-c]pyridin-3-yl)-1-((R)-3-phenyl-piperidin-1-yl)-propan-1-one], the half-inhibitory concentration (IC50) is 1 to 10 µM.

Turning to `Cc1n[nH]c2ccnc(Nc3ccc(S(C)(=O)=O)cc3)c12` [Example 322, (4-Methanesulfonyl-phenyl)-(3-methyl-1H-pyrazolo[4,3-c]pyridin-4-yl)-amine], the IC50 was 1 to 10 µM.

Take `Cc1n[nH]c2ccnc(Nc3ccc4c(c3)CN(C)CC4)c12` [Example 75, (3-Methyl-1H-pyrazolo[4,3-c]pyridin-4-yl)-(2-methyl-1,2,3,4-tetrahydro-isoquinolin-7-yl)-amine]: the IC50 lay within 0.1 to 1 µM.

Take `CC1CCCCN1C(=O)CCc1n[nH]c2ccnc(NC3CCCCC3)c12` (centres unmarked) [Example 198, 3-(4-Cyclohexylamino-1H-pyrazolo[4,3-c]pyridin-3-yl)-1-(2-methyl-piperidin-1-yl)-propan-1-one]: the IC50 fell in the range of 0.1 to 1 µM.

Take `Cc1noc(C2CCCN(C(=O)CCc3n[nH]c4ccnc(NC5CCCCC5)c34)C2)n1` (centres unmarked) [Example 197, 3-(4-Cyclohexylamino-1H-pyrazolo[4,3-c]pyridin-3-yl)-1-[3-(3-methyl-1,2,4-oxadiazol-5-yl)-piperidin-1-yl]-propan-1-one]: the IC50 is 0.1 to 1 µM.

Consider `Cc1n[nH]c2ccnc(NC3CCS(=O)(=O)CC3)c12` [Example 46, (1,1-Dioxo-hexahydro-1λ^6-thiopyran-4-yl)-(3-methyl-1H-pyrazolo[4,3-c]pyridin-4-yl)-amine], for which the IC50 lay within 0.1 to 1 µM.

Consider `Cc1n[nH]c2ccnc(N(C)Cc3ccccc3)c12` [Example 95, Benzyl-methyl-(3-methyl-1H-pyrazolo[4,3-c]pyridin-4-yl)-amine], for which the IC50 fell in the range of 1 to 10 µM.

For the molecule `CC(=O)Nc1cccc(NC(=O)c2ccc(CCc3n[nH]c4ccnc(NC5CCCCC5)c34)cc2)c1` [Example 255, N-(3-Acetylamino-phenyl)-4-[2-(4-cyclohexylamino-1H-pyrazolo[4,3-c]pyridin-3-yl)-ethyl]-benzamide], the 50% inhibitory concentration (IC50) is below 0.1 µM.

With `Fc1cc(-c2n[nH]c3ccnc(NC4CCCCC4)c23)cc(F)c1F` [Example 163, Cyclohexyl-[3-(3,4,5-trifluoro-phenyl)-1H-pyrazolo[4,3-c]pyridin-4-yl]-amine], the IC50 lay in the range of 1 to 10 µM.

Turning to `Cc1n[nH]c2ccnc(NCCc3cccnc3)c12` [Example 351, (3-Methyl-1H-pyrazolo[4,3-c]pyridin-4-yl)-(2-pyridin-3-yl-ethyl)-amine], the IC50 lay within 0.1 to 1 µM.

Take `O=C(CCc1n[nH]c2ccnc(NC3CCCCC3)c12)N1CCCC(c2ccccc2)C1` (centres unmarked) [Example 170, 3-(4-Cyclohexylamino-1H-pyrazolo[4,3-c]pyridin-3-yl)-1-(3-phenyl-piperidin-1-yl)-propan-1-one]: the IC50 lay in the range of 0.1 to 1 µM.

As to `COCCN1CCN(C(=O)CCc2n[nH]c3ccnc(NC4CCCCC4)c23)CC1` [Example 178, 3-(4-Cyclohexylamino-1H-pyrazolo[4,3-c]pyridin-3-yl)-1-[4-(2-methoxy-ethyl)-piperazin-1-yl]-propan-1-one], the IC50 was 0.1 to 1 µM.

In the case of `COc1cccc(-c2nccc3[nH]nc(C)c23)c1` [Example 57, 4-(3-Methoxy-phenyl)-3-methyl-1H-pyrazolo[4,3-c]pyridine], the IC50 lay in the range of 1 to 10 µM.

Consider `O=C(CCc1n[nH]c2ccnc(NC3CCCCC3)c12)N1CCC(C(F)(F)F)CC1` [Example 203, 3-(4-Cyclohexylamino-1H-pyrazolo[4,3-c]pyridin-3-yl)-1-(4-trifluoromethyl-piperidin-1-yl)-propan-1-one], for which the IC50 fell in the range of 0.1 to 1 µM.

On to `O=C(c1ccc(CCc2n[nH]c3ccnc(NC4CCCCC4)c23)cc1)N1CC[C@H](c2cccnc2)C1` [Example 248, {4-[2-(4-Cyclohexylamino-1H-pyrazolo[4,3-c]pyridin-3-yl)-ethyl]-phenyl}-((R)-3-pyridin-3-yl-pyrrolidin-1-yl)-methanone], for which the half-inhibitory concentration (IC50) was below 0.1 µM.

For `O=C(CCc1n[nH]c2ccnc(NC3CCCCC3)c12)N1CCOC(c2ccccc2)C1` (centres unmarked) [Example 205, 3-(4-Cyclohexylamino-1H-pyrazolo[4,3-c]pyridin-3-yl)-1-(2-phenyl-morpholin-4-yl)-propan-1-one], the IC50 fell in the range of 0.1 to 1 µM.

As to `CCC[C@H](C)Oc1nccc2[nH]nc(C)c12` [Example 285, 3-Methyl-4-((S)-1-methyl-butoxy)-1H-pyrazolo[4,3-c]pyridine], the IC50 lay in the range of 0.1 to 1 µM.

Turning to `FC(F)(F)c1ccc(-c2n[nH]c3ccnc(NC4CCCCC4)c23)cc1` [Example 157], the IC50 was in the range of 1 to 10 µM.

`Cc1n[nH]c2ccnc(O[C@H]3C[C@@H]4CC[C@H]3C4)c12` (racemic) [Example 291]: the IC50 was 0.1 to 1 µM.

For `Cc1n[nH]c2ccnc(O[C@H](C)Cc3ccccc3)c12` [Example 299, 3-Methyl-4-((R)-1-methyl-2-phenyl-ethoxy)-1H-pyrazolo[4,3-c]pyridine], the IC50 is below 0.1 µM.

In the case of `Cc1n[nH]c2ccnc(NCc3ccccc3Cl)c12` [Example 315, (2-Chloro-benzyl)-(3-methyl-1H-pyrazolo[4,3-c]pyridin-4-yl)-amine], the IC50 lay within 0.1 to 1 µM.

Regarding `O=C(Nc1ccc(CCc2n[nH]c3ccnc(NC4CCCCC4)c23)cc1)c1ccccn1` [Example 265, Pyridine-2-carboxylic acid {4-[2-(4-cyclohexylamino-1H-pyrazolo[4,3-c]pyridin-3-yl)-ethyl]-phenyl}-amide], the half-maximal inhibitory concentration (IC50) was below 0.1 µM.

Take `Cc1n[nH]c2ccnc(O[C@H](C)C(C)C)c12` [Example 288, 4-((R)-1,2-Dimethyl-propoxy)-3-methyl-1H-pyrazolo [4,3-c]pyridine]: the IC50 is below 0.1 µM.

On to `c1cc2[nH]nc(-c3ccc(N4CCOCC4)nc3)c2c(NC2CCCCC2)n1` [Example 154, Cyclohexyl-[3-(6-morpholin-4-yl-pyridin-3-yl)-1H-pyrazolo[4,3-c]pyridin-4-yl]-amine], for which the IC50 is 0.1 to 1 µM.

In the case of `Cc1n[nH]c2ccnc(Nc3cccc(F)c3)c12` [Example 65, (3-Fluoro-phenyl)-(3-methyl-1H-pyrazolo[4,3-c]pyridin-4-yl)-amine], the 50% inhibitory concentration (IC50) was in the range of 0.1 to 1 µM.

In the case of `Cc1n[nH]c2ccnc(OCC3CC3)c12` [Example 123, 4-Cyclopropyl-methoxy-3-methyl-1H-pyrazolo [4,3-c]pyridine], the IC50 was 0.1 to 1 µM.

In the case of `O=C(CCc1n[nH]c2ccnc(NC3CCCCC3)c12)N1CCC(O)(c2ccccc2)CC1` [Example 176, 3-(4-Cyclohexylamino-1H-pyrazolo[4,3-c]pyridin-3-yl)-1-(4-hydroxy-4-phenyl-piperidin-1-yl)-propan-1-one], the 50% inhibitory concentration (IC50) is 0.1 to 1 µM.

For the molecule `Cc1n[nH]c2ccnc(Nc3cccc(Cl)c3)c12` [Example 59, (3-Chloro-phenyl)-(3-methyl-1H-pyrazolo[4,3-c]pyridin-4-yl)-amine], the 50% inhibitory concentration (IC50) fell in the range of 0.1 to 1 µM.

Regarding `Cc1n[nH]c2ccnc(Nc3ccc4nc[nH]c4c3)c12` [Example 81, (3H-Benzimidazol-5-yl)-(3-methyl-1H-pyrazolo[4,3-c]pyridin-4-yl)-amine], the IC50 is 0.1 to 1 µM.

`O=C(CCc1n[nH]c2ccnc(NC3CCCCC3)c12)N1CCCC1` [Example 173, 3-(4-Cyclohexylamino-1H-pyrazolo[4,3-c]pyridin-3-yl)-1-pyrrolidin-1-yl-propan-1-one]: the IC50 lay in the range of 0.1 to 1 µM.

`CC[C@H](C)COc1nccc2[nH]nc(C)c12` [Example 284, 3-Methyl-4-((S)-2-methyl-butoxy)-1H-pyrazolo[4,3-c]pyridine]: the IC50 is below 0.1 µM.

As for `Cc1n[nH]c2ccnc(N[C@@H](CO)C(C)C)c12` [Example 30, (R)-3-Methyl-2-(3-methyl-1H-pyrazolo[4,3-c]pyridin-4-ylamino)-butan-1-ol], the IC50 was 1 to 10 µM.
